Consider four molecules from patent US9981043B2, “Analgesic conjugates” (priority 2013, dated 2018).

Entries after “also recorded” stand apart in the source; their conditions may differ.

Data set [1] deals with control mice. Description: Radiant tail flick antinociception, control (not pretreated) mice. It counts as in vivo. The settings on record: controls. How it is done:
(§1) Compounds were dissolved in 10% DMSO and then diluted to less than 1% DMSO in the test solutions. […] Compounds were administered in a 5-μl volume in conscious mice, either i.c.v. (Haley T J & McCormick W G, Br J Pharmacol Chemother, 1957, 12(1), 12-15) or i.t. (Hylden J L K & Wilcox G L, Eur. J. Pharmacol., 1980, 67(2-3), 313-316). Peak times were determined by comparing the percent maximal possible effect (% MPE) at 5, 10, 20 and 60 minutes after injection.
(§2) The tail flick assay is used first to test for antinociception as described by D'Amour and Smith (D'AMOUR FE & SMITH DL (1941) J. Pharmacol. Exp. Ther. 72(1):74-79) and modified by Dewey et al. (Dewey W L, Harris L S, Howes J F, & Nuite JA (1970) J. Pharmacol. Exp. Ther. 175(2):435-442). For the measurement of the tail-flick latency, mice are wrapped in a light cloth and held gently in one hand with the tail positioned in the apparatus (Tail Flick Analgesia Meter, Columbus Instruments, Columbus, Ohio) for radiant heat stimulus. The tail-flick response is elicited by applying radiant heat to the dorsal side of the tail. The intensity of the heat is set so that the mouse flicks its tail within 2 to 3 seconds. The test latency is measured before drug treatment (control) and again after the drug treatment (test) at the peak time of the compound; a 10 second maximum cut-off time is used to prevent damage to the tail. Antinociception is quantified according to the Harris L S & Pierson A K, J. Pharmacol. Exp. Ther., 1964, 143(2):141-148, as the percent maximal possible effect (% MPE), which is calculated as: % MPE=(Test−Control/10−Control)×100.
(§3) At least three groups of four to ten mice are used for each dose response curve. ED50 values with 95% confidence intervals (C.I.) are computed with GraphPad Prism 4 by using nonlinear regression methods.

Data set [2] relates to control mice. Description: Acute (24 hour) tolerance, tail flick, control mice. It counts as in vivo. The settings on record: controls, i.t. How it is done: (§4) Acute tolerance utilizing the radiant tail flick assay was measured by comparing the ED80-90 dose on day 1 to the same dose measured 24 hours later on the same mouse. For the LPS pretreated mice, no additional LPS was given to the mice for the acute tolerance test. […] However, the effect was less robust 72 hours after the initial LPS injection. Thus confirming that the acute tolerance test was accurate for the LPS pretreated mice.

Data set [3] concerns LPS pretreated mice. Description: Radiant tail flick antinociception, LPS pretreated mice. Format: in vivo. How it is done:
as §1
The first group mice were pretreated with lipopolysaccaride (LPS, 1 mg/kg, i.p. from Escherichia coli 0111:B4; Sigma-Aldrich, St. Louis, Mo.) for 24 hours before testing for antinociception of compounds 2-6 (Seo Y-J, et al., Pharmacol., Biochem. Behav., 2008, 91, 121-127). This group was compared to a group without pretreatment.
as §2, §3

The subject of data set [4] is LPS pretreated mice. Briefly: Acute (24 hour) tolerance, tail flick, LPS pretreated mice. The settings on record: i.t., 24 hours. It counts as in vivo. How it is done:
as §4

In data set [5] the test system is C3H mice with bone cancer. Briefly: von Frey mechanical hyperalgesia, bone cancer (fibrosarcoma) mice. Conditions: bone cancer, 250 pmol/mouse, day 3. It counts as in vivo. How it is done: The mouse hind paw model of bone cancer was the third model of pain (Wacnik P W, et al., Pain Research & Management, 2000, 16, 615-637; and Wacnik P W, et al., J Neurosci, 2001, 21(23), 9355-9366). Cell Culture: National Collection of Type Cultures (NCTC) clone 2472 fibrosarcoma cells, originally derived from a connective tissue tumor in a C3H mouse, were obtained from the American Type Cell Culture Collection (Rockville, Md.). Cells were grown and maintained in accordance with standard cell culturing techniques. NCTC cells were grown to 80-90% confluence in 75 cm^2 flasks (Corning, Lowell, Mass.) in Dulbecco's Modification of Eagles Medium (Invitrogen, Carlsbad, Calif.) fortified with 10% Horse Serum and sodium bicarbonate. Cell cultures were housed in a water-jacketed incubator with 5% carbon dioxide at 37° C.
Cells were prepared for implantation by first pouring off the culture medium and washing with phosphate-buffered saline (PBS). Trypsin was added to flask and placed in incubator for 3 minutes. Upon detachment, cells were suspended in an ample amount of culture medium to terminate enzymatic activity and centrifuged for 10 min at 1000 g. Fibrosarcoma cells were re-suspended in a known amount of PBS for counting, quantified on a hemacytometer, pelleted and re-suspended in PBS. Fibrosarcoma cells were again re-suspended to a final concentration of 2×10^5 cells in 20 μl. Initially, animals were anesthetized in a plexi-glass chamber using 3% isoflurane in 3 L/min oxygen. Once each mouse was completely anesthetized, a maintenance rate of 2% isoflurane in 1.5 L/min oxygen was maintained during the short implantation procedure. Tumor cells were manually injected by boring into the calcaneus bone using a 29½ gauge needle connected to a sterile 0.3 ml insulin syringe as previously described (19). Following injection, mice were allowed to recover in cages on a heating pad. Animals showing any signs of dysfunction (e.g. problems with ambulation, lethargy or excessive bleeding) or distress where euthanized according to CO2 guidelines.
C3H mice were was placed under a clean glass cup on a wire mesh grid and allowed to acclimate for thirty minutes. Mechanical hypersensitivity was tested using a von Frey filament #3.61 (which produces a force of […]) to the plantar surface of both the left and right hind paw with enough force to cause it to bow slightly. Starting with the right hind paw, the number of positive responses out of a total of 10 applications was recorded followed by the left hind paw. Positive response was indicated by a sharp withdrawal or flinching behavior of the paw. Baseline von Frey measurements were obtained prior to treatment with CFA, tumor and saline controls. […] Subsequent measurements were taken at various time points after intrathecal (i.t.) injection of test compounds on days 3, 7, 10, 14, 17, and 21. % MPE was calculated ((Time-point value−Day# baseline)/(Day 0 baseline−day# baseline))*100 (Smeester B A, Al-Gizawiy M, & Beitz A J (2012) Evidence-Based Complementary and Alternative Medicine 2012:16). Animals with saline injection served as controls for tumor cell implantation and tumor-induced nociception. Behavioral assessments were conducted during the light cycle at approximately the same time each day. The investigator performing the von Frey testing was blinded to the animal and compound injected.
A well-established rodent hind paw model of bone cancer pain (Wacnik P W, et al., J Neurosci. 2001, 21(23), 9355-66) was to examine the effects of representative bivalent ligands on tumor-induced nociception. The inbred C3H/He line is syngeneic to the fibrosarcoma cells used in these experiments and allows these cells to grow tumors without rejection. Male C3H mice were used for all experiments. Animals were maintained on a 12 hour light/dark cycle with food and water ad libitum.
Cells were prepared for implantation by first pouring off the culture medium and washing with phosphate-buffered saline (PBS). […]

In the next data set the test system is C3H/HeNCrlVr mice. Conditions: intrathecal; spontaneous pain, mechanical allodynia, thermal hyperalgesia; cited from earlier work.
The next data set concerns live mice. Description: Respiratory depression (Mouse Ox O2 saturation). Conditions: i.t.; dose 100 times the ED90. It counts as in vivo. How it is done: Respiratory depression was measured in live mice using the Mouse Ox (small animal Oximeter from STARR Life Sciences Corp, Oakmont, Pa.). CollarClip™—(Un-Anesthetized Neck Sensor) for mice was used as the site for measuring the data. Day one of each experiment involved training the animals using a disposable CollarClip™. The collar was left on for approximately one hour. […] Mice were monitored for a 60-minute period, with measurements 10-20-30 and 60 minutes.
Respiratory depression was measured in live mice using the Mouse Ox (small animal Oximeter from STARR Life Sciences Corp, Oakmont, Pa.). CollarClip™ (Un-Anesthetized Neck Sensor) for mice was used as the site for measuring the data.
Day one of each experiment involved training the animals using a disposable CollarClip™. The collar was left on for approximately one hour.
Mice were monitored for a 60-minute period, with measurements 10-20-30 and 60 minutes.

As to `Cc1cccc(C#Cc2cccc(OCCNC(=O)COCC(=O)NCCCCCCCNC(=O)COCC(=O)N[C@H]3CC[C@@]4(O)C5Cc6ccc(O)c7c6[C@@]4(CCN5C)[C@H]3O7)c2)n1` [Compound 4d, N-((4aS,7S,7aR,12bS)-4a,9-dihydroxy-3-methyl-2,3,4,4a,5,6,7,7a-octahydro-1H-4,12-methanobenzofuro[3,2-e]isoquinolin-7-yl)-2-((1-(3-((6-methylpyridin-2-yl)ethynyl)phenoxy)-4,8,18-trioxo-6-oxa-3,9,17-triazanonadecan-19-yl)oxy)acetamide], the “% MPE” value in the data set on control mice [1] (i.c.v., 1000 pmol) turned out to be 53.76 ± 16.36% MPE. In addition, in the data set on control mice [1] (i.t., tail flick), the “ED50 (CI) i.t.” value was found to be 132.7 pmol/mouse. Besides, the figures for the Tolerance result in the data set on control mice [2] and with LPS pretreated mice [4] were “No tolerance” and “devoid of tolerance; also recorded: No tolerance”, respectively. For the same molecule, in the data set with LPS pretreated mice [3] (LPS pretreated (1 mg/kg 24 hours i.p.), i.c.v.), the “ED50 (CI) i.c.v.” value is listed as 411.9 pmol/mouse. Further, in the data set with LPS pretreated mice [3] (LPS pretreated, i.t.), the “dose range of antinociception” value is given as “nmol range”.
For the molecule `CNC(=O)COCC(=O)NCCCNC(=O)COCC(=O)NCCOc1cccc(C#Cc2cccc(C)n2)c1` [Compound 6, N-methyl-2-(1-(3-((6-methylpyridin-2-yl)ethynyl)phenoxy)-4,8,14-trioxo-6-oxa-3,9,13-triazapentadecan-15-yloxy)acetamide], the “% MPE” value in the data set with control mice [1] (i.c.v., 250 pmol/mouse) stood at 24.87 ± 11.77% MPE; with control mice [1] (i.t., 2500 pmol/mouse), 26.13 ± 7.27% MPE; in data set [5], 17.59±18.24 % MPE; in the data set with LPS pretreated mice [3] (LPS pretreated, i.c.v., 2500 pmol/mouse), 38.83 ± 11.59% MPE. Further, the “ED50 (CI) i.t.” value in the data set with LPS pretreated mice [3] (LPS pretreated (1 mg/kg 24 hours i.p.), i.t.) was 548.7 pmol/mouse. Also, in the data set on LPS pretreated mice [4], the Tolerance entry is on record as “No tolerance”.
As for `Cc1cccc(C#Cc2ccccc2)n1` [MPEP], in the data set with C3H/HeNCrlVr mice, the “effect on bone cancer-evoked pain” value is reported as “attenuated bone cancer-evoked spontaneous pain”.
In the case of `CN1CC[C@]23c4c5ccc(O)c4O[C@H]2[C@@H](O)C=C[C@H]3[C@H]1C5` [Morphine, reference compound], in the data set on live mice, the “% of mice with O2 Saturation less than 90%” value was 50%.
